Experimental findings from patent US12435060B2, “Acylamino bridged heterocyclic compound, and composition and application thereof” (BEIJING SCITECH-MQ PHARMACEUTICALS LIMITED, priority 2019, dated 2025) are described below.

pIC50: −log10 of the molar value. Bounds are passed on as bounds.

One may read the pIC50 as the IC50 on a negative log10 scale, so that one unit is a factor of ten.

For the assay, the system named is HT29 cells. Nature of the assay: Inhibition of cell necrosis (CCK8 method), induced programmed necrosis of HT29 cells. The assay is classed as cell-based. Particulars: Homo sapiens, HT-29; rescue from necrosis induced by TNF-α 20 ng/mL, AT-406 1 μM, Z-VAD-FMK 20 μM; 16-20 hours; CCK-8, OD 450 nm. The gist of the method:
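Rescue from programmed necrosis was scored by CCK-8 absorbance at 450 nm after 16-20 h of TNF-α (20 ng/mL), AT-406 (1 μM) and Z-VAD-FMK (20 μM) at 37 °C, 5% CO2. HT29 cells had received compound 30 min earlier across nine 4-fold dilutions (top 25000 nM final). IC50 came from % inhibition relative to uninduced and induced-only wells.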
Background: Tetrazolium dyes change colour on reduction, which living cells bring about.
The compound `CC(C)(O)CCCOc1ccc(Cl)c(-c2ccnc(NC(=O)c3nnc(Cc4cc(C(F)(F)F)ccc4F)[nH]3)c2)c1` [Example 347, N-(4-(2-chloro-5-((4-hydroxy-4-methylpentyl)oxy)phenyl)pyridin-2-yl)-5-(2-fluoro-5-(trifluoromethyl)benzyl)-4H-1,2,4-triazole-3-carboxamide] gave a pIC50 of 6.00 to 7.00. `CCOCCOc1ccc(C(F)(F)F)c(-c2ccnc(NC(=O)c3nnc(CC4CCCCC4)[nH]3)c2)c1` [Example 286, 5-(cyclohexylmethyl)-N-(4-(5-(2-ethoxyethoxy)-2-(trifluoromethyl)phenyl)pyridin-2-yl)-4H-1,2,4-triazole-3-carboxamide] gave a negative logarithm of the IC50 (pIC50) not below 7.00. `COCCOc1ccccc1-c1ccnc(NC(=O)c2nnc(Cc3ccccc3)[nH]2)c1` [Example 126, 5-benzyl-N-(4-(2-(2-methoxyethoxy)phenyl)pyridin-2-yl)-4H-1,2,4-triazole-3-carboxamide] gave a pIC50 of 5.00 to 6.00. As for `CC(C)OCCOc1ccc(C(F)(F)F)c(-c2ccnc(NC(=O)c3nnc(CC4CCCC4)[nH]3)c2)c1` [Example 289, 5-(cyclopentylmethyl)-N-(4-(5-(2-isopropoxyethoxy)-2-(trifluoromethyl)phenyl)pyridin-2-yl)-4H-1,2,4-triazole-3-carboxamide], the pIC50 is not below 7.00. Take `Cc1ccc(OCCCC(C)(C)O)cc1-c1ccnc(NC(=O)c2nnc(Cc3cccc(C#N)c3)[nH]2)c1` [Example 187, 5-(3-cyanobenzyl)-N-(4-(5-((4-hydroxy-4-methylpentyl)oxy)-2-methylphenyl)pyridin-2-yl)-4H-1,2,4-triazole-3-carboxamide]: the negative-log IC50 (pIC50) was not below 7.00.

As to `Cc1ccc(OCCC(C)(C)C)cc1-c1ccnc(NC(=O)c2nnc(Cc3ccccc3)[nH]2)c1` [Example 115, 5-benzyl-N-(4-(5-(3,3-dimethylbutoxy)-2-methylphenyl)pyridin-2-yl)-4H-1,2,4-triazole-3-carboxamide], the negative logarithm of the IC50 (pIC50) is 6.00 to 7.00.

Consider `Cc1cnc(NC(=O)c2nnc(Cc3ccccc3F)[nH]2)cc1-c1cc(OCC2CCOCC2)ccc1F` [Example 331, N-(4-(2-fluoro-5-((tetrahydro-2H-pyran-4-yl)methoxy)phenyl)-5-methylpyridin-2-yl)-5-(2-fluorobenzyl)-4H-1,2,4-triazole-3-carboxamide], for which the pIC50 was 5.00 to 6.00. With `C=Cc1ccc(OCCOC(C)(C)C)cc1-c1ccnc(NC(=O)c2nnc(Cc3ccccc3)[nH]2)c1` [Example 78, 5-benzyl-N-(4-(5-(2-(tert-butoxy)ethoxy)-2-vinylphenyl)pyridin-2-yl)-4H-1,2,4-triazole-3-carboxamide], the negative-log IC50 (pIC50) was not below 7.00. Take `CC(C)(O)CCCOc1ccc(Cl)c(-c2cc(NC(=O)c3nnc(Cc4ccccc4)[nH]3)ncn2)c1` [Example 462, 5-benzyl-N-(6-(2-chloro-5-((4-hydroxy-4-methylpentyl)oxy)phenyl)pyrimidin-4-yl)-4H-1,2,4-triazole-3-carboxamide]: the pIC50 is not below 7.00. Compound `COCCCOc1ccc(C(F)(F)F)c(-c2ccnc(NC(=O)c3nnc(Cc4ccccc4)[nH]3)c2)c1` [Example 295, 5-benzyl-N-(4-(5-(3-methoxypropoxy)-2-(trifluoromethyl)phenyl)pyridin-2-yl)-4H-1,2,4-triazole-3-carboxamide] showed a pIC50 not below 7.00. Consider `CC(=O)c1ccc(-c2ccnc(NC(=O)c3nnc(Cc4ccccc4)[nH]3)c2)c(C)c1` [Example 162, N-(4-(4-acetyl-2-methylphenyl)pyridin-2-yl)-5-benzyl-4H-1,2,4-triazole-3-carboxamide], for which the negative logarithm of the IC50 (pIC50) was 6.00 to 7.00. The value for `Cn1nccc1-c1ccnc(NC(=O)c2nnc(Cc3ccccc3)[nH]2)c1` [Example 26, 5-benzyl-N-(4-(1-methyl-1H-pyrazol-5-yl)pyridin-2-yl)-4H-1,2,4-triazole-3-carboxamide] was 6.00 to 7.00. Then `Cc1ccc(CCCO)cc1-c1ccnc(NC(=O)c2nnc(Cc3ccccc3)[nH]2)c1` [Example 483, 5-benzyl-N-(4-(5-(3-hydroxylpropyl)-2-methylphenyl)pyridin-2-yl)-4H-1,2,4-triazole-3-carboxamide], with 6.00 to 7.00; and `COCCOc1cccc(C)c1-c1ccnc(NC(=O)c2nnc(Cc3ccccc3)[nH]2)c1` [Example 94, 5-benzyl-N-(4-(2-(2-methoxyethoxy)-6-methylphenyl)pyridin-2-yl)-4H-1,2,4-triazole-3-carboxamide], with 5.00 to 6.00; and `O=C(Nc1cc(-c2ccccc2Cl)ccn1)c1nnc(Cc2ccccc2)[nH]1` [Example 7, 5-benzyl-N-(4-(2-chlorophenyl)pyridin-2-yl)-4H-1,2,4-triazole-3-carboxamide], with 6.00 to 7.00.

`O=C(Nc1cc(-c2cc(OCCC3CCOCC3)ccc2C(F)(F)F)ncn1)c1nnc(Cc2ccccc2F)[nH]1` [Example 459, 5-(2-fluorobenzyl)-N-(6-(5-(2-(tetrahydro-2H-pyran-4-yl)ethoxy)-2-(trifluoromethyl)phenyl)pyrimidin-4-yl)-4H-1,2,4-triazole-3-carboxamide] gave a pIC50 not below 7.00. As for `CC(C)(O)CCCCOc1ccc(F)c(-c2ccnc(NC(=O)c3nnc(Cc4ccccc4F)[nH]3)c2)c1` [Example 500, N-(4-(2-fluoro-5-((5-hydroxyl-5-methylhexyl)oxy)phenyl)pyridin-2-yl)-5-(2-fluorobenzyl)-4H-1,2,4-triazole-3-carboxamide], the pIC50 was 6.00 to 7.00.

For the compound `COC(=O)CCc1ccc(C)c(-c2ccnc(NC(=O)c3nnc(CC4CCCC4)[nH]3)c2)c1` [Example 481, Methyl 3-(3-(2-(5-(cyclopentylmethyl)-4H-1,2,4-triazol-3-carboxamido)pyridin-4-yl)-4-methylphenyl)propionate], the pIC50 is 6.00 to 7.00.

`Cc1ccc(OCCCC(C)(C)O)cc1-c1ccnc(NC(=O)c2nnc(CCc3ccccc3)[nH]2)c1` [Example 182, N-(4-(5-((4-hydroxy-4-methylpentyl)oxy)-2-methylphenyl)pyridin-2-yl)-5-phenethyl-4H-1,2,4-triazole-3-carboxamide]: the pIC50 was 6.00 to 7.00. Consider `Cc1cnc(NC(=O)c2nnc(Cc3ccccc3F)[nH]2)cc1-c1cc(OCCCC(C)(C)O)ccc1Cl` [Example 413, N-(4-(2-chloro-5-((4-hydroxy-4-methylpentyl)oxy)phenyl)-5-methylpyridin-2-yl)-5-(2-fluorobenzyl)-4H-1,2,4-triazole-3-carboxamide], for which the pIC50 was 6.00 to 7.00.

On to `Cc1ncccc1-c1ccnc(NC(=O)c2nnc(Cc3ccccc3)[nH]2)c1` [Example 20, 5-benzyl-N-(2-methyl-[3,4′-bipyridin]-2′-yl)-4H-1,2,4-triazole-3-carboxamide], for which the pIC50 is 6.00 to 7.00. As to `Cc1ccc(OCC2CCOCC2)cc1-c1cc(NC(=O)c2nnc(Cc3ccccc3F)[nH]2)ncc1F` [Example 496, N-(5-fluoro-4-(2-methyl-5-((tetrahydro-2H-pyran-4-yl)methoxy)phenyl)pyridin-2-yl)-5-(2-fluorobenzyl)-4H-1,2,4-triazole-3-carboxamide], the pIC50 was not below 7.00.

Compound `Cc1ccc(OCCCC(C)(C)O)cc1-c1ccnc(NC(=O)c2nnc(Cc3ccc(Cl)cc3)[nH]2)c1` [Example 189, 5-(4-chlorobenzyl)-N-(4-(5-((4-hydroxy-4-methylpentyl)oxy)-2-methylphenyl)pyridin-2-yl)-4H-1,2,4-triazole-3-carboxamide] gave a negative logarithm of the IC50 (pIC50) not below 7.00.
